Among the data in PubChem BioAssay (NCI) are TGI and GI50 values, retold here.

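Five concentrations, 48 hours, 96-well plates. GI50: concentration for 50% inhibition of growth. TGI marks complete inhibition of growth.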

Holding throughout (experiment): growth of human tumour cells (NCI), 48 h
The subject of experiment [1] is A498 renal.
Experiment [2] deals with BT-549 breast.
The test system of experiment [3] is CAKI-1 renal.
Experiment [4] concerns HOP-92 NSCLC.
Experiment [5] relates to MDA-MB-231 breast.
For experiment [6], the system named is NCI/ADR-RES ovarian.
Experiment [7] deals with PC-3 prostate.
The test system of experiment [8] is SK-OV-3 ovarian.
For experiment [9], the system named is U251 CNS.
The test system of experiment [10] is SK-MEL-5 melanoma.

As for `NS(=O)(=O)c1ccc(/C=C/c2ccc(F)cc2)cc1`, the TGI in experiment [1] is over 100 µM; in [2] it was 4.92 µM; in [3], over 100 µM; in experiment [4], 77.6 µM; in experiment [5], 50.7 µM; in experiment [6], over 100 µM. For the same compound, the TGI is over 100 µM in experiment [7], 57.6 µM in [8] and 45.7 µM in experiment [9]. Also, the GI50 in experiment [2] was 0.205 µM; in experiment [3], 36.3 µM; in experiment [4], 33.2 µM; in experiment [9] it was 7.93 µM.
Take `CCOc1ccc(N/C(=C(/C(Cl)=C(/Cl)N(CC)CC)[N+](=O)[O-])n2nnc3ccccc32)cc1`: the TGI in experiment [1] was determined as 73.5 µM; in experiment [2], 49.4 µM; in experiment [3] it was 26.9 µM; in experiment [5], 25.2 µM; in experiment [6] it was 53.9 µM; in experiment [7], 41.9 µM. For the same compound, the values for the TGI in experiment [8] and in experiment [9] were over 100 µM and 28.1 µM, respectively.
For `COc1cc2ccc(=O)oc2cc1O`, the TGI is 208 µM in experiment [1]; 401 µM in experiment [3]; over 522 µM in [4]; 277 µM in experiment [6]; 302 µM in [10]; 509 µM in experiment [8]. In addition, the TGI in experiment [9] turned out to be 455 µM.
On to `NC(=O)c1cccc([N+](=O)[O-])c1`, for which the TGI in [1], in experiment [3], in experiment [10], in experiment [8] and in experiment [9] was over 100 µM in each case.
For the compound `Cc1cccc(Nc2nn3c(=O)c4c5c(sc4nc3s2)CCCC5)c1`, the TGI in experiment [2] was 68.7 µM; in experiment [3] it was over 100 µM; in experiment [4], over 100 µM; in experiment [5] it was over 100 µM; in [6], over 100 µM; in experiment [7] it was over 100 µM. Further, the TGI in experiment [10], in experiment [8] and in experiment [9] was over 100 µM throughout.
Take `COC(=O)c1cc(=O)[nH]c(=O)[nH]1`: the TGI in experiment [1], in [2], in experiment [3], in [4], in [5] and in [6] was over 100 µM throughout. For the same compound, the TGI in experiment [7], in [10] and in experiment [9] was over 100 µM in each case.
As for `CC(=O)OCC1OC(SC2=N/C(=C\c3ccc(Br)s3)C(=O)N2CN2CCOCC2)C(OC(C)=O)C(OC(C)=O)C1OC(C)=O` (stereo not drawn), the TGI in [1] was 46 µM; in experiment [2], 38.8 µM; in experiment [3], 34.3 µM; in [5], over 100 µM; in [6] it was 44 µM; in [7], 54.5 µM. The TGI is 33.5 µM in experiment [10] and 32.2 µM in [9].
Take `C[C@H](NC(=O)C(Cc1ccccc1)(Cc1ccc(O)cn1)NC(=O)c1ccccc1)c1ccccc1` (stereo partly drawn): the TGI in [1] worked out at 33.5 µM; in [2], 36.9 µM; in experiment [3], 90.5 µM; in experiment [4], 38.8 µM; in [5], 29.4 µM; in experiment [6], 44.6 µM. Further, the TGI in experiment [7] was 28.7 µM; in experiment [10], 33.7 µM; in experiment [9] it was 28.6 µM.
Regarding `CC(C)=NN/C(=N\S(=O)(=O)c1ccc(Oc2cccc(Cl)c2C#N)cc1)Nc1ccc(Cl)cc1`, the TGI in [2], in experiment [3], in experiment [4], in experiment [5], in experiment [6] and in [7] was over 100 µM in each case. Moreover, the TGI in [10] and in experiment [9] was over 100 µM each time.
Consider `Nc1ccc(S(=O)(=O)c2ccc(NCN3C(=O)NC(=O)C(=O)C3=O)cc2)cc1`, for which the TGI in experiment [1], in [2], in [3], in [4], in experiment [5] and in [6] was over 100 µM throughout. The TGI in [7], in [10] and in [9] was over 100 µM each time.
For the compound `O=C(NCCCCCCCCCCCCNC(=O)Nc1cccc2ccccc12)Nc1cccc2ccccc12`, the TGI in experiment [1] amounted to 31.7 µM; in [2], 31.4 µM; in [3] it was 31.7 µM; in experiment [4], 25.9 µM; in experiment [5], 35.9 µM; in experiment [6], 60.6 µM. Also, the TGI in [7] worked out at 29.7 µM; in experiment [10] it was 46.2 µM; in experiment [9], 31.8 µM.
As to `Cc1ccc2c(=O)cc(-c3ccc(Cl)s3)[nH]c2n1`, the TGI in experiment [1], in [3], in experiment [4], in experiment [5], in experiment [6] and in [7] was over 100 µM each time. In addition, the TGI in experiment [10] is 17.7 µM; in experiment [8], 53.3 µM; in [9], over 100 µM.
With `C=C[C@@H](C)[C@H](NS(=O)(=O)c1ccc(C)cc1)C(=O)OCC`, the TGI in [1], in [2], in experiment [5], in experiment [6], in experiment [7] and in experiment [8] was over 100 µM in each case. Also, the TGI in [9] came to 97.3 µM.
Regarding `C[n+]1cccc2c(=O)c3ccccc3oc21`, the TGI in experiment [1], in experiment [3], in experiment [4], in experiment [5], in experiment [6] and in [7] was over 100 µM in each case. For the same compound, the TGI in experiment [10], in experiment [8] and in experiment [9] was over 100 µM in each case.
On to `CCOC(=O)c1nc2ccc(C(F)(F)F)cc2nc1Oc1cc(OC)c(OC)c(OC)c1`, for which the TGI in experiment [1], in experiment [2], in [4], in experiment [5], in experiment [6] and in experiment [7] was over 100 µM in each case. Moreover, the TGI in experiment [10] is 96.4 µM; in [8] it was over 100 µM; in [9], over 100 µM.
